Experimental data from patent US20090258836A1, “EFFECTIVE DELIVERY OF CROSS-SPECIES A3 ADENOSINE-RECEPTOR ANTAGONISTS TO REDUCE INTRAOCULAR PRESSURE” (The Trustees of The University of Pennsylvania, priority 2006, published 2009).
“Also recorded” adds a separate entry of the source.

Tests used:
[1] = tested on: HCE (human ciliary epithelial) cell line, NPE cells; assay: Cell volume in isosmotic solution (isosmotic shrinkage), Coulter Counter; type: cell-based
Protocol: Cell Culture The HCE (human ciliary epithelial) cell line (Carre et al., supra, 1997) is an immortalized NPE cell line obtained from primary cultures of adult human epithelium. […] Eye Res. 57:3057-3063 (1993); Yantorno et al., Exp. Eye Res. 49:423-437 (1989)). […] Cells were passaged every 6-7 days and were studied 8-13 days after passage, after reaching confluence. An immortalized PE-cell line from a primary culture of bovine pigmented ciliary epithelium were also grown under matching conditions. Measurement of Cell Volume in Isosmotic Solution: The volume of PE and NPE cells was measured, since the movement of fluid underlies a change in PE and NPE cell volume, respectively. This is also thought to be the same as the movement of fluid which underlines the secretion of aqueous humor (FIG. 1). […] Parallel aliquots of cells were studied on the same day. One aliquot usually served as a control, and the others were exposed to different experimental conditions at the time of suspension. The same amount of solvent vehicle (dimethylformamide, DMSO or ethanol) was always added to the control and experimental aliquots. […] Cell volumes of isosmotic suspensions were measured with a Coulter Counter (model ZBI-Channelyzer II), using a 100 μm aperture (Civan et al., supra, 1994). As previously described (Wax et al., supra, 1993), the cell volume (vC) of the suspension was taken as the peak of the distribution function. Cell shrinkage was fit as a function of time (t) to a monoexpenential function: […]^0^)/τ] {1) where v∞ is the steady-state cell volume, v0 is the cell volume at the first point (t0) of the time course to be fit, and τ is the time constant of the shrinkage. For purposes of data reduction, the data were normalized to the first time point, taken to be 100% isotonic volume. Fits were obtained by nonlinear least-squares regression analysis, permitting both v∞ and τ to be variables. […] Med. Chem. 37:636-646 (1994; Jacobson et al., supra, 1995; Jacobson et al., FEBS Lett. 336:57-60 (1993)).

[2] = tested on: intact rabbit ciliary epithelium; assay: Short-circuit current across intact rabbit ciliary epithelium (iris-ciliary body); details: 30 μM IB-MECA, 5 mM Ba2+, solvent-corrected
Protocol: As an initial step in data analysis, 20-min period of baseline current just before addition of any agent was fit by linear least-squares analysis. The line generated by that analysis was extrapolated to a point 45 min beyond introduction of that agent. Each current response was subtracted from its respective extrapolated baseline to yield a common initial baseline approximating constant zero current. All recordings were placed in register relative to time of agent introduction (time 0). Records of control (solvent), IB-MECA with solvent, and B-MECA corrected for solvent were separately averaged. […]
Transepithelial Measurements: In animal experiments, preferably rabbits, after anesthetization and sacrifice (Carre et al., J. Membr. Biol. 146:293-305 (1995), the iris-ciliary body (1-CB) was enucleated and isolated as described by Carre et al., 1995. In one experiment, the pupil and central iris were occluded with a Lucite disc, and the iris-ciliary body was mounted between the two halves of a Lucite chamber. The annulus of exposed tissue provided a projected surface area of 0.93 cm^2. Preparations were continuously bubbled with 95%O2-5% CO2 for maintenance of pH 7.4 in a Ringer's solution comprising (in mM): 110.0 NaCl, 10.0 HEPES (acid), 5.0 HEPES (Na^+), 30.0 NaHCO3, 2.5 CaCl2, 1.2 MgCl2, 5.9 KCl, and 10.0 glucose, at an osmolality of 305 mOsm. […]

[3] = tested on: mouse IOP; assay: Mouse IOP monitored with SNMS, protocols of Yang et al. 2005; type: in vivo
Protocol: Pharmacol. 65:1675-1684 (2003)), is effective both in blocking adenosine-triggered shrinkage of cultured human NPE cells and in lowering IOP of mice (Yang et al., supra, 2005). MRS-1292 was tested on the mouse for two reasons. Transgenic mice provide a convenient opportunity for studying the molecular physiology and pharmacology in the living animal ([…] al., supra, 2003). Second, measurement of IOP permitted us to assess the effects of MRS-1292 on the target parameter. […] Therefore, to directly assess the effect of MRS-1292 in vivo in the mouse, IOP was monitored before and after drug application. IOP was monitored with the Servo-Null-Micropipette System (SNMS). The test protocols are described in detail by Yang et al. supra, 2005, herein incorporated by reference. […] In comparison, addition of the same volume of saline at the same osmolality produced no significant change in IOP (-0.3±1.2 mmHg, n=6, p>0.8) 14 min later. […] To estimate an approximate range, “penetrance” was defined by Yang et al. as the ratio of the published Ki value at receptors in vitro to the minimally effective droplet concentration, for a number of adenosine agonists and antagonists. Thus, penetrance ranges from 1:100 to 1:1000 for purinergic drugs that have been tested in the mouse, and it is not very different from the drug penetrance of 1:100 for agents applied topically to rabbits and primates. This rule of thumb also applies to acylguanidine blockers and bumetanide, whose topical effects have also been studied in the mouse eye. Thus, the approximately 1:1000 penetrance that Yang et al. reported in the 2003 citation for MRS 1292 in the present experiments is consistent with past studies

[4] = tested on: mouse IOP; assay: Mouse IOP after topical application, invasive servo-null micropipette system (SNMS); type: in vivo, Black Swiss mice
Protocol: (§1) The test animals were black Swiss outbred mice of mixed sex, 7-9 weeks old and 25-30 g in weight, obtained from Taconic Inc. (Germantown, N.Y.), and maintained under 12:12-h light/dark illumination cycle and allowed unrestricted access to food and water. Mice were anesthetized with intraperitoneal ketamine ([…]) supplemented by topical proparacaine HCl 0.5% (Allergan, Bausch & Lomb) for the IOP measurements. IOP was measured invasively (SNMS) and non-invasively by pneumotonometry in separate animals.
By the SNMS approach (Avila et al., supra, 2001), the exploring micropipette, of […] outer diameter, was filled with a highly conducting solution and advanced across the cornea into the anterior chamber. A refined technique by Wang et al., Invest. Opthalmol. Vis. Sci. (serial online) (Aug. 31, 2006) available at www.iovs.org/egi/letters/46/9/3274#422, enhanced stability and reduce the background noise of the records, permitting fabrication of micropipettes whose resistance is 0.1-0.3 MΩ, rather than the 0.25-0.4 MΩ used initially. The filling solution was reduced from 3M KCl to 2M NaCl, rather than 3 M KCl. The resistance of the filled micropipette was balanced in a bridge circuit, and the tip was then advanced across the cornea. Upon entering the anterior chamber of the eye, the IOP forces the much lower-conducting aqueous humor into the micropipette tip, displacing the original filling solution. The micropipette resistance was thereby increased, unbalancing the bridge circuit and triggering a bellows to provide a counter-pressure, restoring the position of the filling solution and returning the resistance to its initial value. Thus, the value of the counter-pressure equals the IOP. As in the past (Avila et al., supra, 2001), the stability of the records permitted continuous measurements for tens of minutes during the course of drug applications.
(§2) Ketamine HCl was purchased from Phoenix Pharmaceutical Inc. (St. Joseph, Mo.). Other drugs were obtained from Sigma Chemical (St. Louis, Mo.). Drugs were applied topically with an Eppendorf pipette. […] The final droplet solution contained the drugs at the stated concentrations together with <2% DMSO and 0.0005% benzalkonium chloride at an osmolality of 295-300 mOsm. DMSO was omitted, altogether, from droplets containing the hydrophilic compounds adenosine, carbachol and carboxyfluorescein.
(§3) Effects on invasively-measured IOP were measured 10 min after topical application because after this time, the continued presence of the micropipette can be associated with a downward drift of the IOP, even under control conditions. In contrast, smaller droplets ([…]) were applied to the eye more frequently (three times instead of once) with the non-invasive technique, in order to forestall drying of the eye associated with the airflow from the pneumotonometer. With the non-invasive protocol, the IOP was stable for 30 min under control conditions.
In Table 1, an endpoint of 10 minutes was used for the invasive measurements in light of the above-discussed downward drift of the IOP, even under control conditions. Also the need for smaller, more frequent droplets are discussed above with regard to the non-invasive technique using the pneumotonometer. As above, with the non-invasive protocol, the IOP was stable for 30 minutes under control conditions.

[5] = tested on: mouse IOP; assay: Mouse IOP after topical application, non-invasive pneumotonometry; type: in vivo, Black Swiss mice
Protocol: as §1
By comparison, IOP was measured non-invasively by pneumotonometry (OBT) (Avila et al., supra, 2005). As previously described, the commercially available tip of the ocular blood tomography (OBT) pneumotonometer (Blood Flow Analyzer [BFA] probe tip; Paradigm Medical Industries Inc.) was fit to a custom-built mount. Air flow from a constant pressure source was passed through the mount to reach a diaphragm forming the end of the BFA tip. The flow of air displaces the diaphragm outward, permitting escape of the air through holes in the wall of the probe tip into the atmosphere. Pressure was monitored with a transducer connected through a T-connection to the base of the BFA tip. The probe assembly was advanced to the cornea with a three-axis micromanipulator. The probe tip was advanced sufficiently to make contact with the tear film, as was indicated by a shift in the baseline output reading. In a refined method, the tip was withdrawn until the […] was visually displaced from the tear film. The output was then adjusted to zero before advancing the tip again. Contact with the cornea depresses the diaphragm of the BFA tip, occluding access of the air flow to the escape holes and raising the pressure at the base of the tip.
This approach was simplified to expedite identification of the endpoint, and the probe was subsequently advanced in about 10 standardized steps of approximately […] at intervals of about 10 seconds to identify the inflection region (Wang et al., supra, 2006). […] The pneumotonometric estimates of IOP were previously found to agree with manometric measurements in cannulated preparations and with estimates obtained by the servo-null technique (Avila et al., supra, 2005). Having established the baseline value of IOP, the position along the axis of advance of the micromanipulator was noted, and the probe was retracted from contact with the cornea. Subsequent measurements of IOP at later time points were obtained by advancing the probe tip to the same position, with the placement of the mouse maintained stereotactically. The measurements were conducted at 10-min intervals to avoid potential artifacts associated with prolonged pressure on the cornea.
as §2, §3
In Table 1, an endpoint of 10 minutes was used for the invasive measurements in light of the above-discussed downward drift of the IOP, even under control conditions. […]

[6] = tested on: C57 mouse intraocular pressure; assay: C57 mouse intraocular pressure, invasive servo-null technique; type: in vivo, C57 mice

Row | Structure (SMILES) | τ time constant of the shrinkage ([1]; 100 nM) | v∞ steady-state cell volume ([1]; 100 nM, normalized to first time point as 100% isotonic volume) | effect of agonist on isosmotic volume of NPE cells ([1]; agonist 100 nM) | Kd ([1]; in the presence of gramicidin, read-out: apparent Kd for the IB-MECA-induced shrinkage) | effect on short-circuit current [2] | increase in IOP ([3]; 140 nM) | increase in IOP ([3]; 10-fold lower concentration than 140 nM) | change in IOP ([3]; droplet concentration 1400 nM) | effect on mouse IOP measured invasively (in words) ([4]; servo-null, topical) | effect on IOP in the mouse (in words) ([4]; tested by the inventors, technique not given) | Δ(IOP) Servo-Null ([4]; topical droplet 250 μM (2% DMSO), endpoint 10 min) | effect on mouse IOP measured non-invasively (in words) ([5]; pneumotonometry, topical, MRS-3833 at 200 nM) | Δ(IOP) Pneumotonometer ([5]; topical droplets 250 μM (2% DMSO), 30 min) | IOP with MRS3771 ([6]; Mean ± SEM of 6 experiments) | change in IOP ([6]; Mean ± SEM of 6 experiments) | lowering of IOP of C57 mice ([6]; topical, N=6)
1 | CNC(=O)[C@H]1O[C@@H](n2cnc3c(NCc4cccc(I)c4)ncnc32)[C@H](O)[C@@H]1O [IB-MECA, N^6-(3-iodobenzyl)-adenosine-5′-N-methyluronamide] | 4.5 ± 0.6 min | 95.6±0.2% | produced prompt shrinkage | 55 nM | increased the short circuit current; also recorded: produced a significant increase in the short-circuit current | 4.6±1.6 mmHg | 2.2±0.5 mm Hg | −1.2±1.9 mmHg | – | – | – | – | – | – | – | –
2 | CN(C)C(=O)[C@H]1O[C@@H](n2cnc3c(NCc4cccc(I)c4)nc(Cl)nc32)[C@H](O)[C@@H]1O [MRS-3771] | – | – | – | – | – | – | – | – | effective in lowering mouse IOP | found to lower IOP in the mouse | −3.0 ± 1.1 mm Hg | exerted no effect on IOP | +0.4 ± 0.6 mm Hg | 13.2 ± 1.6 mm Hg | −3.3 ± 0.6 mm Hg | 3.3±0.6 mm Hg
